In one data set the test system is AGS p-ERK. The data set is described as follows: Cell assay for p-ERK (HTRF, Advance ERK phospho-T202/Y204 kit). It counts as cell-based, human. The note with it: AGS cells (KRAS G12D), 3 hrs with compound, inhibition of p-ERK level. In outline:
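KRAS G12D AGS gastric cancer cells were plated overnight, then exposed 3 h to 3.16-fold compound dilutions at 0.1% DMSO final. Lysates were probed for ERK phospho-T202/Y204 by HTRF after 4 h. Inhibition relative to DMSO and blank was fitted by four-parameter regression for IC50.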
In general terms: TR-FRET usually uses a lanthanide donor and a delayed reading to cut background.

Data set [1] has as its system AsPC-1 human pancreatic cancer cell with KRAS G12D mutation. The data set is described as follows: Cell proliferation inhibition experiment, 3D CellTiter-Glo, AsPC-1. It counts as cell-based. The note with it: AsPC-1 cells, 3D spheroid, 5 days. In outline:
(§1)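 3D spheroids (800 AsPC-1 or 400 AGS cells/well) established overnight, then treated with 3.16-fold compound dilutions (0.1% DMSO) for 5 days. Viability read by CellTiter-Glo 3D luminescence; inhibition normalised to DMSO and medium blank, IC50 by four-parameter fit.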
(In general: ATP-based viability assays read luminescence as a measure of living cells.)

For data set [2], the system named is AGS human gastric cancer cell line with KRAS G12D mutation. The data set is described as follows: Cell proliferation inhibition experiment, 3D CellTiter-Glo, AGS. In kind it is cell-based. As to conditions: AGS cells, 3D spheroid, 5 days. In outline: as §1
Another data set can be described thus: in vivo. As to conditions: male, CD-1, mouse, po, 30 mg/kg.
Data set [3] can be described thus: Pharmacokinetic evaluation test in mice. The note with it: PO group, 10 mpk, male CD-1 mice.
Method: (§2) Test objective: Male CD-1 mice were used as test animals. The drug concentrations in plasma of mice at various times were determined by LC/MS/MS after intravenous and oral administration of the test compounds. The pharmacokinetic behavior of the test compounds in mice was studied and their pharmacokinetic characteristics were evaluated.
(§3) Test methods: test animals: 60 healthy adult male CD-1 mice, aged 6-8 weeks and weighing about 30 g, and divided into 10 groups, including IV groups (intravenous injection group, five groups), with 6 mice in each group; and PO groups (oral administration group, five groups), with 6 mice in each group.
(§4) Preparation of drug solution: IV group: Taking 10 mL sample solution as an example, 2 mg sample was weighed, 0.5 mL DMSO and 1 mL Solutol HS 15 were sequentially added, and then 8.5 mL 6% HP-β-CD was added, and stirred ultrasonically to obtain a clear solution of 0.2 mg/mL.
(§5) PO group 1: Taking 10 mL sample solution as an example, 10 mg sample was weighed, 0.5 mL DMSO and 1 mL Solutol HS 15 were sequentially added, and then 8.5 mL 6% HP-β-CD was added, and stirred ultrasonically to obtain a 1 mg/mL solution.
(§6) PO group 2: A 3 mg/mL solution of the sample was prepared according to the preparation method for PO group 1.
(§7) Administration: After overnight fasting, the mice in the IV group were administered with a volume of 5 mL/kg at a dose of 1 mg/kg.
(§8) PO group 1: The mice were administered with a volume of 10 mL/kg at a dose of 10 mg/kg.
(§9) PO group 2: The mice were administered with a volume of 10 mL/kg at a dose of 30 mg/kg.
(§10) Experimental operations: Male CD-1 mice in the intravenous injection group and oral administration group were given the test compound, respectively. After that, 50 μl of blood was periodically collected into a K2EDTA anticoagulation tube at 0.0833, 0.25, 0.5, 1, 2, 4, 6, 8 and 24 hrs, and the plasma was separated by centrifugation at 4° C. and 8000 rpm for 15 min. The plasma was stored in dry ice at −80° C. 4 hrs after administration, the animals were allowed to free access to food. The contents of the test compounds in plasma of mice after intravenous and oral administration were determined by LC/MS/MS. The linear range of the method was 1-3000 ng/ml. The plasma samples were treated with acetonitrile to precipitate the protein and then analyzed.

Each structure is given as a SMILES string.

Method for in vivo: as §2, §3, §4, §5, §6, §7, §8, §9, §10

`C[C@@H]1Oc2nc(-c3cc(N)cc(Cl)c3C(F)(F)F)c(F)c3nc(OC[C@@]45CCCN4CC(=C(F)F)C5)nc(c23)N2C[C@H]3CC[C@H](N3)[C@@H]12` [Z1084, 3-chloro-5-((5S,5aS,6S,9R)-12-(((S)-2-(difluoromethylene)tetrahydro-1H-pyrrolizin-7a(5H)-yl)methoxy)-1-fluoro-5-methyl-5a,6,7,8,9,10-hexahydro-5H-4-oxa-3,10a,11,13,14-pentaaza-6,9-methanonaphtho[1,8-ab]hepten-2-yl)-4-(trifluoromethyl) aniline]: the IC50 – broadly, the concentration needed to halve the response being measured – in the data set on AGS p-ERK (Homo sapiens) was 0.12 nM; in data set [1] (Homo sapiens, ASPC1, 120 h) it was 1.23 nM; in data set [2] (Homo sapiens, 120 h) it was 0.38 nM. Also, the AUC(0-t) (commonly the area under the concentration-time curve up to a stated or last time point) in the data set “in vivo” was found to be 2.44 µg·h/mL. In addition, in the data set “in vivo”, the bioavailability (as a rule, the share of a dose that reaches the circulation, judged against a reference dose that is usually intravenous) came out at 20.7%.
The like results for `[2H]C([2H])([2H])[C@@H]1Oc2nc(-c3cc(N)cc(Cl)c3C(F)(F)F)c(F)c3nc(OC[C@@]45CCCN4CC(=C(F)F)C5)nc(c23)N2C[C@H]3CC[C@H](N3)[C@@H]12` [Z1054, 3-chloro-5-((5S,5aS,6S,9R)-12-(((S)-2-(difluoromethylene)tetrahydro-1H-pyrrolizin-7a(5H)-yl)methoxy)-1-fluoro-5-(methyl-d3)-5a,6,7,8,9,10-hexahydro-5H-4-oxa-3,10a,11,13,14-pentaaza-6,9-methanonaphtho[1,8-ab]hepten-2-yl)-4-(trifluoromethyl) aniline] were, in that order, 0.43 nM, 1.29 nM, 0.37 nM, 3.25 µg·h/mL and 29.4%.
Turning to `C#Cc1c(F)ccc2cc(O)cc(-c3nc4c5c(nc(OC[C@@]67CCCN6C[C@H](F)C7)nc5c3F)N3C[C@H]5CC[C@H](N5)[C@H]3CO4)c12` [Z131-1, 5-ethynyl-6-fluoro-4-((5aS,6S,9R)-1-fluoro-12-(((2R,7aS)-2-fluorotetrahydro-1H-pyrrolizin-7a(5H)-yl)methoxy)-5a,6,7,8,9,10-hexahydro-5H-4-oxo-3,10a,11,13,14-pentaaza-6,9-methanonaphtho[1,8-ab]hepten-2-yl)naphthalen-2-ol], the IC50 in the data set on AGS p-ERK came out at 1.58 nM; in data set [1] it was 32.8 nM; in data set [2], 2.53 nM. Further, in data set [3], the “F (%) bioavailability” value was determined as 0.9%. In data set [3] (plasma), the “AUClast” value was 0.0404 µg·h/mL.

Values taken from patent publication US20260109714A1, “PYRIMIDINE-FUSED RING COMPOUND, AND PREPARATION METHOD THEREFOR AND USE THEREOF” (GENFLEET THERAPEUTICS (SHANGHAI) INC., priority 2022, published 2026).
